For 19 compounds, IC50 results are on record in patent US20250215029A1 (Recludix Pharma, Inc., priority 2022, published 2025).

A value given as a limit tells only on which side of the number the result lay.

T1 sequence (P40763 whole entry): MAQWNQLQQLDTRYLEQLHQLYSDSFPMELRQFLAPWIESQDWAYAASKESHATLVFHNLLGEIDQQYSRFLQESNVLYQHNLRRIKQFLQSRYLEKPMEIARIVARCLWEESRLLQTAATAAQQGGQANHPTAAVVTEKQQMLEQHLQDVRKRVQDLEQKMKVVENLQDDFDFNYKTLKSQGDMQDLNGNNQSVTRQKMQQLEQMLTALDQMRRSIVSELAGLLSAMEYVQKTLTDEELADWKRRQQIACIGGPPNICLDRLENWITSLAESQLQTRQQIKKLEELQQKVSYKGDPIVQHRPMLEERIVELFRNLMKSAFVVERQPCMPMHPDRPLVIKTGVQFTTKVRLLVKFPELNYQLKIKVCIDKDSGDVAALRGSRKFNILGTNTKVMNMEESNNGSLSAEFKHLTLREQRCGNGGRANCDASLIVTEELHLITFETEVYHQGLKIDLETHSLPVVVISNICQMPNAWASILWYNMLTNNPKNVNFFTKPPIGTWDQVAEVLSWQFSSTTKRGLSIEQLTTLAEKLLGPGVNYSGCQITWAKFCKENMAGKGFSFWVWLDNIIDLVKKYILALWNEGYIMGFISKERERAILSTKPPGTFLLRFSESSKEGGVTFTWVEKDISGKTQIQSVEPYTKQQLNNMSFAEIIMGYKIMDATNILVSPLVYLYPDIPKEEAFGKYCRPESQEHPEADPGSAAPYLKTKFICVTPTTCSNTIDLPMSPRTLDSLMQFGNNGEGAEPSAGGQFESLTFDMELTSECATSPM

The first assay concerns the target T1, pY705-STAT3 in PBMC (Homo sapiens, UniProt P40763).
T1 construct: Cryopreserved Peripheral Blood Mononuclear Cells (PBMC) are from AllCells; host or cells: cryopreserved PBMC
The assay is described as follows: MSD-pSTAT-PBMC Assay (pSTAT3, IL-6 stimulated). The assay is classed as cell-based. The note with it: PBMC, compound 3 hrs, then 10 ng/mL IL-6 for 10 min; Table 115; read-out: STAT3. Put shortly: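 Cells are preincubated with compound for 3 hrs, then stimulated for 10 min, IL-4 at 1 ng/mL driving STAT6 phosphorylation and IL-6 at 10 ng/mL driving STAT3. Phospho-STAT in lysates is quantified by MSD immunoassay, and IC50 is fitted after subtracting unstimulated wells.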
On to `CCOC(=O)[C@H](C)NP(=O)(Cc1ccc2sc(C(=O)N[C@H]3CCC[C@H]4CC[C@@H](C(=O)N5CC(c6cccnc6)C5)N4C3=O)cc2c1)Oc1ccccc1` (stereo partly drawn) [Compound 422, ethyl (((2-(((3S,6S,9aS)-5-oxo-3-(3-(pyridin-3-yl)azetidine-1-carbonyl)octahydro-1H-pyrrolo[1,2-a]azepin-6-yl)carbamoyl)benzo [b]thiophen-5-yl)methyl)(phenoxy)phosphoryl)-L-alaninate], for which the IC50 was less than 100 nM. As for `CCCOC(=O)[C@H](C)NP(=O)(Cc1ccc2sc(C(=O)N[C@H]3CCC[C@H]4CC[C@@H](C(=O)N5CC(c6cccnc6)C5)N4C3=O)cc2c1)N1CCOCC1` (stereo partly drawn) [Compound 426, propyl (morpholino((2-(((3S,6S,9aS)-5-oxo-3-(3-(pyridin-3-yl)azetidine-1-carbonyl)octahydro-1H-pyrrolo[1,2-a]azepin-6-yl)carbamoyl)benzo [b]thiophen-5-yl)methyl)phosphoryl)-L-alaninate], the IC50 is more than 3000 nM. Take `CCCOC(=O)[C@H](C)NP(=O)(Cc1ccc2sc(C(=O)N[C@H]3CCC[C@H]4CC[C@@H](C(=O)N5CC(c6cccnc6)C5)N4C3=O)cc2c1)OCC(F)(F)F` (stereo partly drawn) [Compound 428, propyl (((2-(((3S,6S,9aS)-5-oxo-3-(3-(pyridin-3-yl)azetidine-1-carbonyl)octahydro-1H-pyrrolo[1,2-a]azepin-6-yl)carbamoyl)benzo [b]thiophen-5-yl)methyl)(2,2,2-trifluoroethoxy)phosphoryl)-L-alaninate]: the IC50 is less than 100 nM. With `CCCOC(=O)[C@H](COC)NP(=O)(Cc1ccc2sc(C(=O)N[C@H]3CCC[C@H]4CC[C@@H](C(=O)N5CC(c6cccnc6)C5)N4C3=O)cc2c1)Oc1ccccc1` (stereo partly drawn) [Compound 430, propyl O-methyl-N-(((2-(((3S,6S,9aS)-5-oxo-3-(3-(pyridin-3-yl)azetidine-1-carbonyl)octahydro-1H-pyrrolo[1,2-a]azepin-6-yl)carbamoyl)benzo [b]thiophen-5-yl)methyl)(phenoxy)phosphoryl)-L-serinate], the IC50 was in the range of 100 to 1000 nM. As for `CCCOC(=O)[C@H](CCOC)NP(=O)(Cc1ccc2sc(C(=O)N[C@H]3CCC[C@H]4CC[C@@H](C(=O)N5CC(c6cccnc6)C5)N4C3=O)cc2c1)Oc1ccccc1` (stereo partly drawn) [Compound 431, propyl O-methyl-N-(((2-(((3S,6S,9aS)-5-oxo-3-(3-(pyridin-3-yl)azetidine-1-carbonyl)octahydro-1H-pyrrolo[1,2-a]azepin-6-yl)carbamoyl)benzo [b]thiophen-5-yl)methyl)(phenoxy)phosphoryl)-L-homoserinate], the IC50 is 100 to 1000 nM. On to `CCCOC(=O)[C@H](Cc1ccccn1)NP(=O)(Cc1ccc2sc(C(=O)N[C@H]3CCC[C@H]4CC[C@@H](C(=O)N5CC(c6cccnc6)C5)N4C3=O)cc2c1)Oc1ccccc1` (stereo partly drawn) [Compound 432, propyl (2S)-2-((((2-(((3S,6S,9aS)-5-oxo-3-(3-(pyridin-3-yl)azetidine-1-carbonyl)octahydro-1H-pyrrolo[1,2-a]azepin-6-yl)carbamoyl)benzo [b]thiophen-5-yl)methyl)(phenoxy)phosphoryl)amino)-3-(pyridin-2-yl)propanoate], for which the IC50 lay in the range of 100 to 1000 nM.

As to `CCCOC(=O)[C@H](C)NP(=O)(Cc1ccc2sc(C(=O)N[C@H]3CCC[C@H]4CC[C@@H](C(=O)N5CC(c6cccnc6)C5)N4C3=O)cc2c1)N1CCCC1=O` (stereo partly drawn) [Compound 433, propyl (((2-(((3S,6S,9aS)-5-oxo-3-(3-(pyridin-3-yl)azetidine-1-carbonyl)octahydro-1H-pyrrolo[1,2-a]azepin-6-yl)carbamoyl)benzo [b]thiophen-5-yl)methyl)(2-oxopyrrolidin-1-yl)phosphoryl)-L-alaninate], the IC50 is 1000 to 3000 nM. Same read-out and setting: for `CCCOC(=O)C1(NP(=O)(Cc2ccc3sc(C(=O)N[C@H]4CCC[C@H]5CC[C@@H](C(=O)N6CC(c7cccnc7)C6)N5C4=O)cc3c2)Oc2ccccc2)CC1` (stereo partly drawn) [Compound 434, propyl 1-((((2-(((3S,6S,9aS)-5-oxo-3-(3-(pyridin-3-yl)azetidine-1-carbonyl)octahydro-1H-pyrrolo[1,2-a]azepin-6-yl)carbamoyl)benzo [b]thiophen-5-yl)methyl)(phenoxy)phosphoryl)amino) cyclopropane-1-carboxylate] the value was 100 to 1000 nM.

Take `CCCOC(=O)[C@H](C)NP(=O)(Oc1ccccc1)C(C)c1ccc2sc(C(=O)N[C@H]3CCC[C@H]4CC[C@@H](C(=O)N5CC(c6cccnc6)C5)N4C3=O)cc2c1` (stereo partly drawn) [Compound 435, propyl ((1-(2-(((3S,6S,9aS)-5-oxo-3-(3-(pyridin-3-yl)azetidine-1-carbonyl)octahydro-1H-pyrrolo[1,2-a]azepin-6-yl)carbamoyl)benzo [b]thiophen-5-yl)ethyl)(phenoxy)phosphoryl)-L-alaninate]: the IC50 fell in the range of 100 to 1000 nM. With `CCCOC(=O)[C@H](C)NP(=O)(Cc1ccc2sc(C(=O)N[C@H]3CCC[C@H]4CC[C@@H](C(=O)N5CC(c6cccnc6)C5)N4C3=O)cc2c1)OCC(C)(F)F` (stereo partly drawn) [Compound 437, propyl ((2,2-difluoropropoxy)((2-(((3S,6S,9aS)-5-oxo-3-(3-(pyridin-3-yl)azetidine-1-carbonyl)octahydro-1H-pyrrolo[1,2-a]azepin-6-yl)carbamoyl)benzo [b]thiophen-5-yl)methyl)phosphoryl)-L-alaninate], the IC50 lay within 100 to 1000 nM.

`CCCOC(=O)[C@H](C)NP(=O)(Cc1ccc2sc(C(=O)N[C@H]3CCC[C@H]4CC[C@@H](C(=O)N5CC(c6cccnc6)C5)N4C3=O)cc2c1)OCCOC` (stereo partly drawn) [Compound 438, propyl ((2-methoxyethoxy)((2-(((3S,6S,9aS)-5-oxo-3-(3-(pyridin-3-yl)azetidine-1-carbonyl)octahydro-1H-pyrrolo[1,2-a]azepin-6-yl)carbamoyl)benzo [b]thiophen-5-yl)methyl)phosphoryl)-L-alaninate]: the IC50 is 1000 to 3000 nM.

`CCCOC(=O)[C@H](C)NP(=O)(Cc1ccc2sc(C(=O)N[C@H]3CCC[C@H]4CC[C@@H](C(=O)N5CC(c6cccnc6)C5)N4C3=O)cc2c1)OCC` (stereo partly drawn) [Compound 439, propyl (ethoxy((2-(((3S,6S,9aS)-5-oxo-3-(3-(pyridin-3-yl)azetidine-1-carbonyl)octahydro-1H-pyrrolo[1,2-a]azepin-6-yl)carbamoyl)benzo [b]thiophen-5-yl)methyl)phosphoryl)-L-alaninate]: the IC50 was 100 to 1000 nM. With `CCCOC(=O)[C@H](C)N[P@@](=O)(Oc1ccccc1)[C@@H](F)c1ccc2sc(C(=O)N[C@H]3CCC[C@H]4CC[C@@H](C(=O)N5CC(c6cccnc6)C5)N4C3=O)cc2c1` [Compound 447], the IC50 is less than 100 nM.

As to `CCCOC(=O)[C@H](C)N[P@@](=O)(Oc1ccccc1)[C@H](F)c1ccc2sc(C(=O)N[C@H]3CCC[C@H]4CC[C@@H](C(=O)N5CC(c6cccnc6)C5)N4C3=O)cc2c1` [Compound 464], the IC50 is less than 100 nM. Same read-out and setting: with `CCCOC(=O)[C@H](C)NP(=O)(Oc1ccccc1)[C@H](F)c1ccc2sc(C(=O)N[C@H]3CCC[C@H]4CC[C@@H](C(=O)N5CC(c6cnccc6OCC)C5)N4C3=O)cc2c1` (stereo partly drawn) [Compound 484, propyl (((S)-(2-(((3S,6S,9aS)-3-(3-(4-ethoxypyridin-3-yl)azetidine-1-carbonyl)-5-oxooctahydro-1H-pyrrolo[1,2-a]azepin-6-yl)carbamoyl)benzo [b]thiophen-5-yl)fluoromethyl) (phenoxy)phosphoryl)-L-alaninate] the figure was less than 100 nM. For `CCCOC(=O)[C@H](C)NP(=O)(Oc1ccccc1)[C@@H](F)c1ccc2sc(C(=O)N[C@H]3CC[C@@H](CC)C[C@H]4CC[C@@H](C(=O)N5CC(c6cnccc6N6CCC6)C5)N4C3=O)cc2c1` (stereo partly drawn) [Compound 493, propyl (((R)-(2-(((3S,6S,9R,10aR)-3-(3-(4-(azetidin-1-yl)pyridin-3-yl)azetidine-1-carbonyl)-9-ethyl-5-oxodecahydropyrrolo [1,2-a]azocin-6-yl)carbamoyl)benzo [b]thiophen-5-yl)fluoromethyl) (phenoxy)phosphoryl)-L-alaninate], the IC50 was less than 100 nM. In the case of `CCCOC(=O)[C@H](C)NP(=O)(Oc1ccccc1)[C@@H](F)c1ccc2sc(C(=O)N[C@H]3CCC[C@H]4CC[C@@H](C(=O)N5CC(c6cnccc6OCC)C5)N4C3=O)cc2c1` (stereo partly drawn) [Compound 494, propyl (((R)-(2-(((3S,6S,9aS)-3-(3-(4-ethoxypyridin-3-yl)azetidine-1-carbonyl)-5-oxooctahydro-1H-pyrrolo[1,2-a]azepin-6-yl)carbamoyl)benzo [b]thiophen-5-yl)fluoromethyl) (phenoxy)phosphoryl)-L-alaninate], the IC50 was less than 100 nM. Take `CCOC(=O)[C@H](CC)NP(=O)(Cc1ccc2sc(C(=O)N[C@H]3CCC[C@H]4CC[C@@H](C(=O)N5CC(c6cccnc6)C5)N4C3=O)cc2c1)Oc1ccccc1` (stereo partly drawn) [Compound 944, ethyl (2S)-2-((((2-(((3S,6S,9aS)-5-oxo-3-(3-(pyridin-3-yl)azetidine-1-carbonyl)octahydro-1H-pyrrolo[1,2-a]azepin-6-yl)carbamoyl)benzo [b]thiophen-5-yl)methyl)(phenoxy)phosphoryl)amino) butanoate]: the IC50 lay in the range of 100 to 1000 nM.

Staying with this assay, now noted: STAT3, PBMC, compound 3 hrs, then 10 ng/mL IL-6 for 10 min; Table 115.
`CCCOC(=O)C(C)(C)NP(=O)(Cc1ccc2sc(C(=O)N[C@H]3CCC[C@H]4CC[C@@H](C(=O)N5CC(c6cccnc6)C5)N4C3=O)cc2c1)Oc1ccccc1` (stereo partly drawn) [Compound 445, propyl 2-methyl-2-((((2-(((3S,6S,9aS)-5-oxo-3-(3-(pyridin-3-yl)azetidine-1-carbonyl)octahydro-1H-pyrrolo[1,2-a]azepin-6-yl)carbamoyl)benzo [b]thiophen-5-yl)methyl)(phenoxy)phosphoryl)amino) propanoate] registered an IC50 of less than 100 nM.
